Test results as given in PubChem BioAssay (NCI).
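Here, GI50 denotes the concentration required for 50% inhibition of growth. TGI: concentration producing complete growth inhibition.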

How the values were obtained:
Experiment in all cases: NCI tumour cell line growth inhibition, 384-well format
KM12 colon = system: KM12 colon
BT-549 breast = system: BT-549 breast
CAKI-1 renal = system: CAKI-1 renal
TK-10 renal = system: TK-10 renal
SF-295 CNS = system: SF-295 CNS
HT29 colon = system: HT29 colon
NCI-H23 lung = system: NCI-H23 lung
U251 glioblastoma = system: U251 glioblastoma
DU-145 prostate = system: DU-145 prostate
UACC-62 melanoma = system: UACC-62 melanoma
OVCAR-5 ovarian = system: OVCAR-5 ovarian
HCC-2998 colon = system: HCC-2998 colon
MDA-MB-231 breast = system: MDA-MB-231 breast
CCRF-CEM leukemia = system: CCRF-CEM leukemia
MCF7 breast = system: MCF7 breast
MALME-3M melanoma = system: MALME-3M melanoma
NCI-H460 NSCLC = system: NCI-H460 NSCLC
SK-MEL-2 melanoma = system: SK-MEL-2 melanoma
IGROV1 ovarian = system: IGROV1 ovarian
UO-31 renal = system: UO-31 renal
A549 NSCLC = system: A549 NSCLC
786-0 renal = system: 786-0 renal
NCI/ADR-RES ovarian = system: NCI/ADR-RES ovarian
SNB-19 CNS = system: SNB-19 CNS
SK-OV-3 ovarian = system: SK-OV-3 ovarian
HOP-92 NSCLC = system: HOP-92 NSCLC
A498 renal = system: A498 renal
HS 578T breast = system: HS 578T breast
HCT-15 colon = system: HCT-15 colon
SW-620 colon = system: SW-620 colon
HOP-62 NSCLC = system: HOP-62 NSCLC
K-562 leukemia = system: K-562 leukemia
MOLT-4 leukemia = system: MOLT-4 leukemia
SF-268 CNS = system: SF-268 CNS
COLO 205 colon = system: COLO 205 colon
SK-MEL-5 melanoma = system: SK-MEL-5 melanoma
EKVX NSCLC = system: EKVX NSCLC
SF-539 CNS = system: SF-539 CNS
SNB-75 CNS = system: SNB-75 CNS
PC-3 prostate = system: PC-3 prostate
M14 melanoma = system: M14 melanoma
SR leukemia = system: SR leukemia
ACHN renal = system: ACHN renal
MDA-MB-435 melanoma = system: MDA-MB-435 melanoma
HL-60(TB) leukemia = system: HL-60(TB) leukemia
UACC-257 melanoma = system: UACC-257 melanoma
OVCAR-8 ovarian = system: OVCAR-8 ovarian

N#Cc1c(N)nc(N)nc1N[C@H](c1nc2c(F)ccc(Cl)c2c(=O)n1-c1cccnc1)C1CC1
GI50 (KM12 colon): 17.8 µM
TGI (KM12 colon): 52.3 µM
GI50 (BT-549 breast): 0.711 µM
TGI (BT-549 breast): 12.9 µM
GI50 (CAKI-1 renal): 2.3 µM
TGI (CAKI-1 renal): > 100 µM
GI50 (TK-10 renal): 4.55 µM
TGI (TK-10 renal): 29.1 µM
GI50 (SF-295 CNS): 2.37 µM
TGI (SF-295 CNS): 18.4 µM
GI50 (HT29 colon): 13.4 µM
TGI (HT29 colon): 42 µM
GI50 (NCI-H23 lung): 15.3 µM
TGI (NCI-H23 lung): 54.8 µM
GI50 (U251 glioblastoma): 18.3 µM
TGI (U251 glioblastoma): 61.9 µM
GI50 (DU-145 prostate): 13.4 µM
TGI (DU-145 prostate): > 85.1 µM
GI50 (UACC-62 melanoma): 3.23 µM
TGI (UACC-62 melanoma): 58.9 µM
GI50 (OVCAR-5 ovarian): 9.12 µM
TGI (OVCAR-5 ovarian): 43.1 µM
GI50 (HCC-2998 colon): 11 µM
TGI (HCC-2998 colon): 24.5 µM
GI50 (MDA-MB-231 breast): 9.59 µM
TGI (MDA-MB-231 breast): 34.2 µM
GI50 (CCRF-CEM leukemia): 1.42 µM
TGI (CCRF-CEM leukemia): 10.6 µM
GI50 (MCF7 breast): 2.73 µM
TGI (MCF7 breast): > 100 µM
GI50 (MALME-3M melanoma): > 39.9 µM
TGI (MALME-3M melanoma): > 100 µM
GI50 (NCI-H460 NSCLC): 5.48 µM
TGI (NCI-H460 NSCLC): > 100 µM
GI50 (SK-MEL-2 melanoma): 17.3 µM
TGI (SK-MEL-2 melanoma): 39.3 µM
GI50 (IGROV1 ovarian): 1.64 µM
TGI (IGROV1 ovarian): 4.18 µM
GI50 (UO-31 renal): 2.64 µM
TGI (UO-31 renal): 8.87 µM
GI50 (A549 NSCLC): 9.47 µM
TGI (A549 NSCLC): 30.1 µM
GI50 ([…]-0 renal): 3.51 µM
TGI (786-0 renal): 24.4 µM
GI50 (NCI/ADR-RES ovarian): 34.2 µM
TGI (NCI/ADR-RES ovarian): > 100 µM
GI50 (SNB-19 CNS): 15 µM
TGI (SNB-19 CNS): 31.8 µM
GI50 (SK-OV-3 ovarian): 4.36 µM
TGI (SK-OV-3 ovarian): 37.5 µM
GI50 (HOP-92 NSCLC): 0.677 µM
TGI (HOP-92 NSCLC): 14.3 µM
GI50 (A498 renal): 0.445 µM
TGI (A498 renal): 3.11 µM
GI50 (HS 578T breast): 1.79 µM
TGI (HS 578T breast): 15.4 µM
GI50 (HCT-15 colon): 16.1 µM
TGI (HCT-15 colon): 44.9 µM
GI50 (SW-620 colon): 11.9 µM
TGI (SW-620 colon): 36.3 µM
GI50 (HOP-62 NSCLC): 17.9 µM
TGI (HOP-62 NSCLC): > 65.3 µM
GI50 (K-562 leukemia): 17.8 µM
TGI (K-562 leukemia): 38.1 µM
GI50 (MOLT-4 leukemia): 1.54 µM
TGI (MOLT-4 leukemia): 3.94 µM
GI50 (SF-268 CNS): 13.9 µM
TGI (SF-268 CNS): 51.1 µM
GI50 (COLO 205 colon): 19.8 µM
TGI (COLO 205 colon): > 91.6 µM
GI50 (SK-MEL-5 melanoma): 12.6 µM
TGI (SK-MEL-5 melanoma): 34.3 µM
GI50 (EKVX NSCLC): 2.63 µM
TGI (EKVX NSCLC): 17.6 µM
GI50 (SF-539 CNS): 5.96 µM
TGI (SF-539 CNS): 44.5 µM
GI50 (SNB-75 CNS): 0.67 µM
TGI (SNB-75 CNS): 5.1 µM
GI50 (PC-3 prostate): 1.08 µM
TGI (PC-3 prostate): 14 µM
GI50 (M14 melanoma): 79 µM
TGI (M14 melanoma): > 100 µM
GI50 (SR leukemia): 10.5 µM
TGI (SR leukemia): 22.5 µM
GI50 (ACHN renal): 7.04 µM
TGI (ACHN renal): > 100 µM
GI50 (MDA-MB-435 melanoma): 35.4 µM
TGI (MDA-MB-435 melanoma): > 100 µM
GI50 (HL-60(TB) leukemia): 1.13 µM
TGI (HL-60(TB) leukemia): 7.85 µM
GI50 (UACC-257 melanoma): 19.5 µM
TGI (UACC-257 melanoma): > 100 µM
GI50 (OVCAR-8 ovarian): 13.4 µM
TGI (OVCAR-8 ovarian): 32.7 µM
